Measured values: patent US20240376120A1, “CAMPTOTHECIN COMPOUND, PREPARATION METHOD THEREFOR AND USE THEREOF” (priority 2021, published 2024)
pIC50: −log10 of the molar value. Where two headings read alike, the source gives them in different places.

Columns and labels:
[1] = tested on: MCF-7 cells (human breast cancer cells); assay: MCF-7 cell proliferation inhibitory assay (CellTiter-Glo); format: cell-based; settings: Homo sapiens
Method: • 1). […] Resuspend an appropriate amount of cell suspension to 4000 cells/100 μL according to the count, mixed well and then put the corresponding number of cells into a 96-well plate by pipette. • 3). Each hole of the edge was sealed with 100 μL DPBS and put into an incubator for culture. • 4). Day 1 drug addition: Prepare the storage solution of the compound to be tested 1 hour in advance. 24 h after plating, the culture medium was gradiently diluted to a concentration twice the final concentration of each group. Take out the plated cells from the incubator and add 100 μL of the corresponding 2-fold concentration medium to each well by pipette.
Day 1 detected: Take out the plate to be tested and an appropriate amount of CTG in advance and rewarm it at room temperature in the dark. 50 μL of CTG was added to each well at 24 h. Shake with the oscillator for 5 minutes, and after balancing in the dark for 5 minutes, detect the luminescence value with a microplate reader; The mixture was shaken for 5 min, and after equilibration in the dark for 5 min, the luminescence value was detected with ELISA. • 6). Day 4 detection: Take an appropriate amount of CTG 1 h in advance and rewarm it at room temperature in the dark. At the same time, take out the plate to be tested from the incubator and leave it to equilibrate at room temperature for 30 minutes; 72 h after adding the drug, 100 μL of culture medium was sucked out with pipette carefully from each cell well, and 50 μL of CTG was added. The mixture was shaken for 5 min, and after equilibration in the dark for 5 min, the luminescence value was detected with ELISA analyzer. • 7). Data analysis and processed.
Collect data and convert it into survival rate: Inhibition rate (%)=(100−(OD value of compound-OD value on the first day)/(OD value of control well-OD value on the first day))×100%
(§1) Input the compound into graphpad prism to obtain the corresponding IC50 value.

[2] = tested on: MDA-MB-231 cells (human breast cancer cells); assay: MDA-MB-231 cell proliferation inhibitory assay (CellTiter-Glo); format: cell-based; settings: Homo sapiens
Method: (§2) • 1). […] Resuspend an appropriate amount of cell suspension to 3000 cells/100 μL according to the count, mixed well and then put the corresponding number of cells into a 96-well plate by pipette. • 3). Each hole of the edge was sealed with 100 μL DPBS and put into an incubator for culture. • 4). Day 1 drug addition: Prepare the storage solution of the compound to be tested 1 hour in advance. 24 h after plating, the culture medium was gradiently diluted to a concentration twice the final concentration of each group. Take out the plated cells from the incubator and add 100 μL of the corresponding 2-fold concentration medium to each well by pipette. • 5). Day 1 detected: Take out an appropriate amount of CTG 1 h in advance and the plate was allowed to equilibrate at room temperature for 30 min. 100 μL of CTG was added to each well and shaken for 5 mins, and then standed in the dark for 5 mins, the luminescence value was detected by ELISA. • 6). Day 4 detection: Take an appropriate amount of CTG 1 h in advance and rewarm it at room temperature in the dark. At the same time, take out the plate to be tested from the incubator and leave it to equilibrate at room temperature for 30 minutes; 72 h after adding the drug, 100 μL of culture medium was sucked out with pipette carefully from each cell well, and 100 μL of CTG was added. The mixture was shaken for 5 min, and after equilibration in the dark for 5 min, the luminescence value was detected with ELISA. • 7). Analyze data and write detailed experimental records.
as §1

[3] = tested on: MDA-MB-435s cells (human melanoma cells); assay: MDA-MB-435s cell proliferation inhibitory assay (CellTiter-Glo); format: cell-based; settings: Homo sapiens
Method: as §2
Collect data and convert it into survival rate: Inhibition rate (%)=(100−(OD value of compound−OD value on the first day)/(OD value of control well-OD value on the first day))×100%
as §1

in vitro = settings: human, Caco-2
Method: Day 0 plated: After digesting the target cells in the logarithmic growth phase, make a single cell suspension and count. • 2). Took out the corresponding number of transwell chambers and placed them in a 24-well plate, added 200 μL PBS to the upper chamber, incubated for 10 mins, and removed the PBS from the upper chamber by pipette. • 3). According to the count, took an appropriate amount of cell suspension and resuspended it to 5000 cells/200 μL, mixed well and added it to the upper chamber of the transwell, and added 600 μL of complete culture medium to the lower chamber. • 4). medium exchanged on DAY1: The upper chamber and the lower chamber were exchanged with complete culture medium containing 0.1 mg/mL ascorbic acid for 9 days continuously, and the resistance value of membrane expansion was measured. […] Collected the liquid in the upper chamber and the lower chamber for detection. • 7). Calculated Papp according to the formula “Papp=dQ/(dt×A×C0)”. dQ/dt was the transport amount of drugs per unit time, which was the slope of the linear regression of cumulative drug release amount Q versus time t. A was the bottom area of the Transwell orifice plate membrane, and the bottom area was 0.33 cm^2 of 24-well plate in this experiment. Co was the initial concentration of drugs in the upper chamber (μg mL-1).

[4] = MCF7, MCF-7 cells, 72 h after adding the drug, Table 1, read-out: Proliferation inhibition IC50
[5] = MDA-MB-231, 72 h, read-out: Proliferation inhibition IC50
[6] = MDA-MB-435S, 72 h, read-out: Proliferation inhibition IC50
[7] = MDA-MB-231 cells, 72 h after adding the drug, Table 2, read-out: Proliferation inhibition IC50
[8] = MDA-MB-435s cells, 72 h after adding the drug, Table 3, read-out: Proliferation inhibition IC50
[9] = MCF7, 72 h, read-out: Proliferation inhibition IC50
[10] = MCF7, read-out: MCF-7 Proliferation inhibition IC50
[11] = MDA-MB-231, read-out: MDA-MB-231 Proliferation inhibition IC50
[12] = MDA-MB-435S, read-out: MDA-MB-435s Proliferation inhibition IC50

Compound	pIC50 [2, 5]	pIC50 [3, 6]	pIC50 [1, 9]	further results
CC[C@@]1(O)C(=O)OCc2c1cc1n(c2=O)Cc2c-1nc1cc(F)c(C)cc1c2[C@@H](C)NC(=O)CO [Example 13b]	6.89	8.41		pIC50 [1, 4]: 7.59; Papp A→B at 180 min, 100 μg/mL (in vitro): 56.1 ×10⁻⁶ cm/s
CC[C@@]1(O)C(=O)OCc2c1cc1n(c2=O)Cc2c-1nc1cc(F)c(C)cc1c2CN [Compound A, reference compound]				pIC50 [1, 4]: 7.82; pIC50 ([1]; MCF7, MCF-7 cells, comparative Table 4, read-out: MCF-7 Proliferation inhibition IC50): 7.82; pIC50 [2, 7]: 6.58; pIC50 ([2]; MDA-MB-231 cells, comparative Table 4, read-out: MDA-MB-231 Proliferation inhibition IC50): 6.58; pIC50 [3, 8]: 7.67; pIC50 ([3]; MDA-MB-435s cells, comparative Table 4, read-out: MDA-MB-435s Proliferation inhibition IC50): 7.67; Papp A→B at 180 min, 100 μg/mL (in vitro): 68.8 ×10⁻⁶ cm/s
CC[C@@]1(O)C(=O)OCc2c1cc1n(c2=O)Cc2c-1nc1ccc(C(F)F)cc1c2[C@@H](C)N [Example 32b]	7.69	8.73	8.26	
CC[C@@H](N)c1c2c(nc3ccccc13)-c1cc3c(c(=O)n1C2)COC(=O)[C@]3(O)CC [Example 9R]	6.74	7.82	7.26	
CC[C@@]1(O)C(=O)OCc2c1cc1n(c2=O)Cc2c-1nc1cc(F)c(C)cc1c2[C@H](N)C(F)(F)F [Example 40b]	7.59	8.58	8.46	
CC[C@@]1(O)C(=O)OCc2c1cc1n(c2=O)Cc2c-1nc1cc(F)c(C)cc1c2[C@H]1CCN1 [Example 38b]	8.21	9.19	8.70	
CC[C@@]1(O)C(=O)OCc2c1cc1n(c2=O)Cc2c-1nc1cc(F)c(C)cc1c2[C@@H](N)C(F)(F)F [Example 40a]	7.30	8.39	8.18	
CC[C@@]1(O)C(=O)OCc2c1cc1n(c2=O)Cc2c-1nc1ccc(OC)cc1c2[C@H](C)N [Example 31a]	7.82	8.42	8.09	
CC[C@@]1(O)C(=O)OCc2c1cc1n(c2=O)Cc2c-1nc1cc(F)c(C(F)(F)F)cc1c2[C@@H](C)N [Example 34b]	8.06	8.55	8.38	
CC[C@@]1(O)C(=O)OCc2c1cc1n(c2=O)Cc2c-1nc1cc(F)c(C)cc1c2[C@H](C)NC(=O)[C@H](O)C(F)(F)F [Example 18]	6.82	7.99	7.95	
CC[C@@]1(O)C(=O)OCc2c1cc1n(c2=O)Cc2c-1nc1cc(F)c(OC)cc1c2[C@H](C)O [Example 30c]	7.91	8.42	8.09	
CC[C@@]1(O)C(=O)OCc2c1cc1n(c2=O)Cc2c-1nc1cc(F)c(C)cc1c2C(C)(C)N [Example 7]	6.49	6.79	7.69	
CC[C@@]1(O)C(=O)OCc2c1cc1n(c2=O)Cc2c-1nc1ccc(O)cc1c2[C@H](C)O [Example 12-1]	6.30	7.42	7.49	
CC[C@@]1(O)C(=O)OCc2c1cc1n(c2=O)Cc2c-1nc1cc3c(cc1c2[C@@H](C)N)OCO3 [Example 35b]	8.15	8.94	8.21	
CC[C@@]1(O)C(=O)OCc2c1cc1n(c2=O)Cc2c-1nc1cc3c(cc1c2[C@@H](C)N)OCCO3 [Example 36b]	7.81	8.50	8.08	
CC[C@@]1(O)C(=O)OCc2c1cc1n(c2=O)Cc2c-1nc1cc(F)c(C)cc1c2[C@H](C)NC [Example 21]	7.69	8.92	8.38	
CC[C@@]1(O)C(=O)OCc2c1cc1n(c2=O)Cc2c-1nc1cc(F)c(C)cc1c2[C@H](C)N1CCNCC1 [Example 41a]	7.00	8.29	7.54	

Compound	pIC50 [2, 5]	pIC50 [3, 6]	pIC50 [1, 9]	further results
CC[C@@]1(O)C(=O)OCc2c1cc1n(c2=O)Cc2c-1nc1ccc(OC)cc1c2[C@H](C)O [Example 31c]	7.74	8.24	7.99	
CC[C@@]1(O)C(=O)OCc2c1cc1n(c2=O)Cc2c-1nc1cc(F)c(C)cc1c2[C@H](C)NCCO [Example 25]	6.58	7.99	7.52	
CC[C@H](N)c1c2c(nc3ccccc13)-c1cc3c(c(=O)n1C2)COC(=O)[C@]3(O)CC [Example 9]	6.51	7.60	7.60	
CC[C@@]1(O)C(=O)OCc2c1cc1n(c2=O)Cc2c-1nc1cc(F)c(C)c(C)c1c2[C@H](C)N [Example 29a]	8.00	8.68	8.35	
CC[C@@]1(O)C(=O)OCc2c1cc1n(c2=O)Cc2c-1nc1cc(F)c(C)cc1c2CO [Example 12b]	7.69	8.49	7.78	pIC50 [1, 10]: 7.78; pIC50 [2, 11]: 7.69; pIC50 [3, 12]: 8.49; Papp A→B at 180 min, 100 μg/mL (in vitro): 49.3 ×10⁻⁶ cm/s
CC[C@@]1(O)C(=O)OCc2c1cc1n(c2=O)Cc2c-1nc1cc(F)c(C)cc1c2[C@@H]1CCN1 [Example 38a]	7.78	8.95	8.25	
[2H]C([2H])([2H])[C@@H](N)c1c2c(nc3cc(F)c(C)cc13)-c1cc3c(c(=O)n1C2)COC(=O)[C@]3(O)CC [Example 43b]				pIC50 [1, 4]: 8.57; pIC50 [2, 7]: 8.10; pIC50 [3, 8]: 9.19
CC[C@@]1(O)C(=O)OCc2c1cc1n(c2=O)Cc2c-1nc1cc(F)c(C)cc1c2[C@@H](C)N1CCNCC1 [Example 41b]	7.52	8.41	7.71	
CC[C@@]1(O)C(=O)OCc2c1cc1n(c2=O)Cc2c-1nc1cc(F)c(C)cc1c2[C@H](C)N [Example 2]	7.80	8.64	8.59	
CC[C@@]1(O)C(=O)OCc2c1cc1n(c2=O)Cc2c-1nc1cc(F)c(C)cc1c2[C@@H](C)O [Example 12d]	7.91	8.80	8.17	pIC50 [1, 10]: 8.17; pIC50 [2, 11]: 7.91; pIC50 [3, 12]: 8.80
CC[C@@]1(O)C(=O)OCc2c1cc1n(c2=O)Cc2c-1nc1cc(F)c(OC)cc1c2[C@@H](C)N [Example 30b]	7.60	9.05	8.42	
CC[C@@]1(O)C(=O)OCc2c1cc1n(c2=O)Cc2c-1nc1ccc(O)cc1c2[C@H](C)N [Example 6]	5.96	7.43	8.08	
CC[C@@]1(O)C(=O)OCc2c1cc1n(c2=O)Cc2c-1nc1ccc(O)cc1c2C(C)O (stereo partly drawn) [Example 12]	5.92	7.23	7.30	
CC[C@@]1(O)C(=O)OCc2c1cc1n(c2=O)Cc2c-1nc1cc(F)c(C)cc1c2[C@H](C)[N+](C)(C)C [Example 24]	7.10	8.18	7.99	
CC[C@@]1(O)C(=O)OCc2c1cc1n(c2=O)Cc2c-1nc1cc(F)c(C)cc1c2C1CNC1 [Example 37]	7.04	8.63	8.29	
CC[C@@]1(O)C(=O)OCc2c1cc1n(c2=O)Cc2c-1nc1cc(F)c(C(F)(F)F)cc1c2[C@H](C)N [Example 34a]	7.94	8.36	8.02	
